Measured values reported in US20040115800A1, “Selectable marker for genetically engineered cells and tissues” (priority 2003, published 2004).

What was measured:
A549-CD-IRES-EGFP cells = experiment: Growth inhibition assay (MTT), CD gene-modified A549 cells; format: cell-based, human; details: for % cell survival: 4 days, MTT
Procedure: (§1) . […] Five days following the last transduction round, flow cytometry analysis was performed to determine gene transfer efficiency and transgene expression as evaluated by GFP fluorescence. Stably transduced A549-CD-IRES-EGFP cells were subsequently expanded in complete media only, as well as in the presence of two different concentrations of ARA-C, 1 μM and 2.5 μM, for 12 days.
(§2) Gene-modified A549 cells were plated in 96-well flat-bottom tissue culture dishes at a density of 1500 cells per well. Various concentrations of ARA-C or dFdC (Lilly Research Laboratories, Indianapolis, Ind.) were added to cells in a final volume of 100 μl RPMI/10% FBS. Cells were placed at 37° C. and 4 days later exposed to 20 μl of a solution containing 3-(4,5-deimethylthiazol-2-yl)-2,5-diphenyltetrazolium bromide, i.e. MTT, for 4 hours at 37° C., and subsequently to 100 μl of a solubilization buffer (50% N,N-dimethylformamide, 20% SDS) for approximately 15 hours. The optical density was then measured at 570 nm with reference at 630 nm using a multi-well plate reader, thus providing an assessment of the percentage of surviving cells based on the cleavage of MTT by the mitochondrial dehydrogenases of living cells to the detectable formazan. Percent cell survival was ascertained using the following equation: [formula]

A549-IRES-EGFP cells = experiment: Growth inhibition assay (MTT), control-vector A549 cells; format: cell-based, human; details: 4 days
Procedure: as §1, §2

[1] = test system: primary human lymphocytes transduced with CD-IRES-EGFP; experiment: Growth suppression assay (trypan blue), CD gene-modified lymphocytes; format: cell-based; details: two weeks
From the text: (§3) Primary human lymphocytes were isolated from peripheral blood by Ficoll Hypaque™ centrifugation and plated at a cell density of ˜1×10^6 cells/ml in RPMI supplemented with 10% FBS, 50 U/ml Pen/Strep, and 200 U/ml human IL-2. The next day, lymphocytes were activated with phytohemagglutinin (PHA) for 72 hrs and subsequently co-cultivated over subconfluent 293GPG-CD-IRES-EGFP or control 293GPG-IRES-EGFP virus producers tetracycline withdrawn three days earlier for optimal high titer virion generation. Lipofectaminel was added for a final concentration of 6 μg/ml, and co-cultivation permitted to proceed for 48 hours. Lymphocytes were then carefully collected and three days later plated at a density of 600 000 cells per well of 48-well tissue culture dishes in the absence or presence of various concentrations of ARA-C in a final volume of 800 μl) complete media. After a two week period, viable cells were enumerated by trypan blue exclusion and cell survival measured as such: % cell survival=(number of cells in test well/number of cells grown in media only)×100. (Flow cytometry analysis for CD3 expression was conducted and all cells confirmed to be lymphocytes.)

[2] = test system: 2.5 μM ARA-C selected A549-CD-IRES-EGFP cells; experiment: Growth inhibition assay (MTT), ARA-C-selected CD gene-modified A549 cells; format: cell-based, human; details: 4 days
Procedure: as §1, §2

untransduced A549 cells = experiment: Growth inhibition assay (MTT), parental A549 cells; format: cell-based, human; details: 4 days
Procedure: A549 human lung carcinoma cells, obtained from American Type Culture Collection (ATCC), were maintained in RPMI 1640 medium (Canadian Life Technologies) supplemented with 10% heat-inactivated FBS.
as §2

[3] = test system: primary human lymphocytes transduced with IRES-EGFP; experiment: Growth suppression assay (trypan blue), control-vector lymphocytes; format: cell-based; details: two weeks
From the text: as §3

[4] = test system: primary mouse marrow stromal cells; experiment: In vitro selection and enrichment assay of CD gene-modified marrow stroma (flow cytometry); format: cell-based; details: for % GFP+ cells: 10% CD-IRES-EGFP stroma mixture (11.7% without ARA-C); for mean GFP fluorescence: 10% CD-IRES-EGFP stroma mixture (13.0±3.0 without ARA-C)
Procedure: One female C57BI/6 mouse was sacrificed by CO2 inhalation and bone marrow cells harvested by flushing the hind leg femurs and tibias with DMEM™ supplemented with 10% FBS and 50 U/ml Pen/Strep. Whole marrow was plated in 10 cm (diameter) tissue culture dishes and five days later, the nonadherent hematopoietic cells were discarded and the adherent bone marrow stromal cells cultured (for ˜3 months) at 37° C. with 5% CO2. Supernatant containing virions from subconfluent GP+envAM12-CD-IRES-EGFP or from control GP+envAM12-Neo^R-IRES-EGFP producers was placed over marrow stromal cells plated at subconfluence. Transduction was carried out twice a day for three successive days in the presence of 6 μg/ml Lipofectamine™. Over 72 hours pursuing to the last transduction round, flow cytometry analysis for GFP expression was performed to evaluate the gene transfer efficiency.
Drug exposure was ceased 7 days later, and cells expanded for an additional week in DMEMI with 10% FBS and 50U/ml Pen/Strep and analysed by flow cytometry analysis. […] Pursuant to a 1-week drug exposure (preventing total confluence by cell passaging) and subsequent week of cell expansion, percent GFP positive cells and mean GFP fluorescence were evaluated by flow cytometry analysis.

Row | SMILES | survival of A549-CD-IRES-EGFP relative to control cells (A549-CD-IRES-EGFP cells; ARA-C 1 μM) | % cell survival (A549-CD-IRES-EGFP cells; ARA-C 1 μM, A549-CD-IRES-EGFP without post-transduction drug selection) | % cell survival (A549-IRES-EGFP cells; ARA-C 1 μM) | % cell survival ([1]; ARA-C 1 μM) | % cell survival ([1]; ARA-C 5 μM) | % cell survival ([2]; ARA-C 1 μM, CD-modified A549 previously selected in 2.5 μM ARA-C for 12 days, MTT) | % cell survival (untransduced A549 cells; ARA-C 1 μM, untransduced A549, MTT) | % cell survival ([3]; ARA-C 1 μM, IRES-EGFP transduced lymphocytes) | % cell survival ([3]; ARA-C 5 μM, IRES-EGFP-modified lymphocytes) | % GFP+ cells ([4]; 0.25 μM ARA-C 1 week + 1 week culture) | % GFP+ cells ([4]; 2.5 μM ARA-C 1 week + 1 week culture) | effect on untransduced and NeoR-IRES-EGFP modified stroma ([4]; ARA-C 2.5 μM (printed 2.5 CM)) | mean GFP fluorescence ([4]; selected in 1 μM ARA-C) | mean GFP fluorescence ([4]; selected in 2.5 μM ARA-C) | % cell survival (A549-CD-IRES-EGFP cells; dFdC 1 μM, unselected A549-CD-IRES-EGFP) | % cell survival (A549-CD-IRES-EGFP cells; dFdC same concentration (0.1), A549-CD-IRES-EGFP unselected) | % cell survival (A549-IRES-EGFP cells; dFdC 0.1M (so in the source)) | % cell survival ([2]; dFdC 0.1 μM, 2.5 μM ARA-C selected CD-IRES-EGFP modified A549, MTT) | % cell survival ([2]; dFdC 1 μM, 2.5 μM ARA-C selected cells, MTT) | % cell survival (untransduced A549 cells; dFdC 0.1M (so in the source), A549, MTT)
1 | Nc1ccn([C@@H]2O[C@H](CO)[C@@H](O)[C@@H]2O)c(=O)n1 [ARA-C, cytosine arabinoside] | over 3 fold | 47.4±1.9% | 10.6±0.4% | 87.5±7.2% | 98.1 ± 4.2% | 70.7±1.3% | 15.3±0.6% | 5.5±1.7% | 0.1±0.1% | 51.5% | 99.6% | completely eradicate | 48.3±6.5 | 99.3±3.3 |  |  |  |  |  | 
2 | Nc1ccn([C@@H]2O[C@H](CO)[C@@H](O)C2(F)F)c(=O)n1 [dFdC] |  |  |  |  |  |  |  |  |  |  |  |  |  |  | 17.2±0.7% | 86.4±2.4% | 10.7±0.4% | 92.1±1.7% | 53.3±1.8% | 15.1±0.5%
